Results as given in patent US20130236656A1, “SELF-REDUCED METAL COMPLEX INKS SOLUBLE IN POLAR PROTIC SOLVENTS AND IMPROVED CURING METHODS” (LIQUID X PRINTED METALS, INC., priority 2012, published 2013).

Conditions: isolated solid

CC(C)C(=O)[O-].NCCN.[Ag+] [ethylenediamine silver isobutyrate]
hygroscopicity (hydroscopic [sic]): hydroscopic
